US20240307349A1, “METHODS FOR THE PREPARATION AND DOSE REGIMENS FOR USE OF SSTR4 AGONISTS AND SALTS THEREOF” (priority 2023, published 2024)

Assays:
participants with DPNP = assay: H0P-MC-NP03 Phase 2 placebo-controlled trial, diabetic peripheral neuropathic pain; assay type: in vivo, human
Description: The purpose of this study was to test whether Example 5 is efficacious in relieving diabetic peripheral neuropathic pain (DPNP). Data was collected to assess the safety and tolerability of Example 5 in this study population and previously discussed above. Pharmacokinetic properties and pharmacodynamic effects were also explored. The totality of data from this proof-of-concept study will assess the benefits and risks associated with Example 5.
NP03 was an 8-week, Phase 2, randomized, double-blind, placebo-controlled study that compared Example 5 versus placebo in participants with DPNP.
Participants received either Example 5 or placebo. Based on tolerability, participants received up to a maximum of 3 capsules orally (each capsule was 200 mg), twice daily, approximately every 12 hours, for a total dose of 600 mg.
The primary clinical question of interest was, “What is the treatment difference between Example 5 and placebo assessed using mean change from baseline to endpoint (Week 8) for average pain intensity (API) as measured by the Numeric Rating Scale (NRS) in participants with diabetic peripheral neuropathic pain (DPNP) regardless of initiation of rescue medication or other allowed concomitant medication and assuming that they would have continued initially randomized treatment condition?”
Participants were randomly assigned 2:1 to Example 5 or placebo. Based on tolerability, participants could take up to a maximum of 3 capsules orally (each capsule was 200 mg), twice daily (BID), approximately every 12 hours, for a total dose of 600 mg BID.
The protocol allowed changes to the dose for individual participants, but the maximum daily dose should not exceed 600 mg BID. The starting dose level was 200 mg BID. Decisions to change the dose level were made by the investigator in discussion with the participants based on the adverse events (AEs) reported for tolerability. The medical monitor was contacted as needed. All changes in dose level had to occur before the end of Visit 4 (Study Week 2).
NP03 was an 8-week, multicenter, randomized, DB, placebo-controlled, Phase 2, proof-of-concept study to evaluate Example 5 for the treatment of DPNP. Participants were randomly assigned 2:1 to Example 5 or placebo. A total of 68 participants enrolled into the NP03 ISA, with 45 participants randomly assigned to Example 5, and 23 participants assigned to placebo. The safety population consisted of the 68 participants who received at least 1 dose of study intervention and included all participants in the enrolled population. Using a titration scheme, Example 5 was administered orally as a maximum of 3 capsule (200 mg per capsule) for a total dose of 600 mg approximately every 12 hours, with or without food. Fifty percent of participants completed the BD treatment phase.

patients = assay: Pooled safety analysis of Phase 2 studies OA03, BP03 and NP03; assay type: in vivo, human; conditions: 200 mg to 600 mg
Method: For each of these studies, further analyses were performed to identify TEAEs related to CV, thyroid, and abnormal renal function. CV AEs were identified using prespecified standardized MedDRA queries/preferred terms (SMQs/PTs) for cardiac arrhythmia, hypotension, major adverse cardiovascular event, and congestive heart failure. Thyroid-related AEs were identified with the ‘Hypothyroidism’ (SMQ), and AEs associated with abnormal renal function were identified with the high-level terms (HLTs) renal failure and impairment and select PTs.
Safety data from the 3 pooled intervention-specific appendix (ISAs), OA03, BP03, and NP03 were analyzed for the following safety topics of interest.
Thus, after the treatment of a total 282 patients that were administered from 200 mg to 600 mg of Example 5 in the 3 phase 2 studies, an adequate safety profile was established. While the safety of the 3 phase 2 studies were discussed together, the efficacy results for each study will be discussed herein.

Cc1cccnc1OCC(C)(C)NC(=O)[C@H]1[C@@H]2CNC[C@@H]21.O=C(O)C(O)C(O)C(=O)O [Example 5, (1R,5S,6r)-N-(2-Methyl-1-((3-methylpyridin-2-yl)oxy)propan-2-yl)-3-azabicyclo[3.1.0]hexane-6-carboxamide L-tartrate sesquihydrate]
Mean Change of Average Pain Intensity, Weekly Average of NRS (participants with DPNP; 400 mg BID, week 1, n = 8): −0.74
Observed Mean of Average Pain Intensity, Weekly Average of NRS (participants with DPNP; 400 mg BID, week 1, n = 8): 5.76
Mean Change of Average Pain Intensity, Weekly Average of NRS (participants with DPNP; 400 mg BID, week 2, n = 9): −1.62
Observed Mean of Average Pain Intensity, Weekly Average of NRS (participants with DPNP; 400 mg BID, week 2, n = 9): 4.90
Mean Change of Average Pain Intensity, Weekly Average of NRS (participants with DPNP; 400 mg BID, week 3, n = 9): −2.12
Observed Mean of Average Pain Intensity, Weekly Average of NRS (participants with DPNP; 400 mg BID, week 3, n = 9): 4.41
Mean Change of Average Pain Intensity, Weekly Average of NRS (participants with DPNP; 400 mg BID, week 4, n = 6): −2.05
Observed Mean of Average Pain Intensity, Weekly Average of NRS (participants with DPNP; 400 mg BID, week 4, n = 6): 5.46
Mean Change of Average Pain Intensity, Weekly Average of NRS (participants with DPNP; 400 mg BID, week 5, n = 4): −3.37
Observed Mean of Average Pain Intensity, Weekly Average of NRS (participants with DPNP; 400 mg BID, week 5, n = 4): 4.66
Mean Change of Average Pain Intensity, Weekly Average of NRS (participants with DPNP; 400 mg BID, week 6, n = 5): −2.72
Observed Mean of Average Pain Intensity, Weekly Average of NRS (participants with DPNP; 400 mg BID, week 6, n = 5): 4.15
Mean Change of Average Pain Intensity, Weekly Average of NRS (participants with DPNP; 400 mg BID, week 7, n = 4): −3.34
Observed Mean of Average Pain Intensity, Weekly Average of NRS (participants with DPNP; 400 mg BID, week 7, n = 4): 2.96
Mean Change of Average Pain Intensity, Weekly Average of NRS (participants with DPNP; 400 mg BID, week 8, n = 4): −3.39
Observed Mean of Average Pain Intensity, Weekly Average of NRS (participants with DPNP; 400 mg BID, week 8, n = 4): 4.17
Mean Change of Average Pain Intensity, Weekly Average of NRS (participants with DPNP; 600 mg BID, week 1, n = 30): −0.72
Observed Mean of Average Pain Intensity, Weekly Average of NRS (participants with DPNP; 600 mg BID, week 1, n = 30): 5.77
Mean Change of Average Pain Intensity, Weekly Average of NRS (participants with DPNP; 600 mg BID, week 2, n = 29): −1.59
Observed Mean of Average Pain Intensity, Weekly Average of NRS (participants with DPNP; 600 mg BID, week 2, n = 29): 4.91
Mean Change of Average Pain Intensity, Weekly Average of NRS (participants with DPNP; 600 mg BID, week 3, n = 23): −2.09
Observed Mean of Average Pain Intensity, Weekly Average of NRS (participants with DPNP; 600 mg BID, week 3, n = 23): 4.82
Mean Change of Average Pain Intensity, Weekly Average of NRS (participants with DPNP; 600 mg BID, week 4, n = 24): −2.18
Observed Mean of Average Pain Intensity, Weekly Average of NRS (participants with DPNP; 600 mg BID, week 4, n = 24): 4.64
Mean Change of Average Pain Intensity, Weekly Average of NRS (participants with DPNP; 600 mg BID, week 5, n = 21): −2.43
Observed Mean of Average Pain Intensity, Weekly Average of NRS (participants with DPNP; 600 mg BID, week 5, n = 21): 4.18
Mean Change of Average Pain Intensity, Weekly Average of NRS (participants with DPNP; 600 mg BID, week 6, n = 19): −2.37
Observed Mean of Average Pain Intensity, Weekly Average of NRS (participants with DPNP; 600 mg BID, week 6, n = 19): 4.26
Mean Change of Average Pain Intensity, Weekly Average of NRS (participants with DPNP; 600 mg BID, week 7, n = 17): −2.64
Observed Mean of Average Pain Intensity, Weekly Average of NRS (participants with DPNP; 600 mg BID, week 7, n = 17): 3.78
Mean Change of Average Pain Intensity, Weekly Average of NRS (participants with DPNP; 600 mg BID, week 8, n = 16): −2.74
Observed Mean of Average Pain Intensity, Weekly Average of NRS (participants with DPNP; 600 mg BID, week 8, n = 16): 3.79
Mean change from baseline assessment to endpoint for API as measured using the NRS (participants with DPNP; 8 weeks after initial treatment administration, up to 600 mg Q12H, n = 45): −2.75
most secondary endpoints compared with placebo (participants with DPNP; DPNP): greater numerical improvements
decrease in API measured by NRS, 400 mg dosing regimen compared with the 600 mg dosing regimen (participants with DPNP; Week 8): greater decrease in API measured by NRS in the 400 mg dosing regimen
primary objective: posterior probability for change from baseline in API versus placebo (participants with DPNP; Week 8, DPNP): met the prespecified threshold
Mean change from baseline assessment to endpoint for worst pain intensity as measured by weekly NRS (participants with DPNP; Week 8, n = 45): −3.06
Mean change from baseline assessment to endpoint on the VAS for pain (participants with DPNP; Week 8, n = 45): −30.20
Mean change from baseline to endpoint for the BPI-SFM (participants with DPNP; Week 8, n = 45): −2.31
Overall improvement to endpoint as measured by PGIC (participants with DPNP; Week 8, n = 45): 2.3
differences in thyroid-related TEAEs or thyroid analytes versus placebo (patients): no clinically meaningful differences
